These results are taken from publication PMC6199744, “Development of Chemical Proteomics for the Folateome and Analysis of the Kinetoplastid Folateome” (ACS Infectious Diseases, 2018).

Read-outs that look alike come from different tables or passages of the source.

Type in all cases: binding
The target of experiment [1] is T1, HeLa cell extract proteins (Homo sapiens, UniProt O14980).
T1 construct: endogenous in cells; host or cells: HeLa cell extract

Experiment [2] deals with T2, HeLa cell extract proteins (Homo sapiens, UniProt P00403).
T2 construct: endogenous in cells; host or cells: HeLa cell extract
T2 sequence (P00403 whole entry): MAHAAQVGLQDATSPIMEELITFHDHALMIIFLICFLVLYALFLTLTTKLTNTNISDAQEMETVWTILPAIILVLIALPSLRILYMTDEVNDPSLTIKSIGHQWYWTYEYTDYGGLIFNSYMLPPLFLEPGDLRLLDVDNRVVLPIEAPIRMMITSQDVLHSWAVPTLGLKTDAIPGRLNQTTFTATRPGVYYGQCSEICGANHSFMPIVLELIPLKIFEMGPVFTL

In experiment [3] the target is T3, HeLa cell extract proteins (Homo sapiens, UniProt P30876).
T3 construct: endogenous in cells; host or cells: HeLa cell extract

Experiment [4] concerns the target T4, HeLa cell extract proteins (Homo sapiens, UniProt P36542).
T4 construct: endogenous in cells; host or cells: HeLa cell extract
T4 sequence (P36542 26-298): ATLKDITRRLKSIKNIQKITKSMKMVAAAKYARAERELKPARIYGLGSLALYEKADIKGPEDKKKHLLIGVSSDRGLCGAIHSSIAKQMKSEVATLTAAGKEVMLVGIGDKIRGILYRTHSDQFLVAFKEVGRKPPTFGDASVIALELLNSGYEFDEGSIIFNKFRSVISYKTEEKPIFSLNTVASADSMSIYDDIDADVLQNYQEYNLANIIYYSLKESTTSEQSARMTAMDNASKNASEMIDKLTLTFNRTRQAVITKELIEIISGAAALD

In experiment [5] the target is T5, HeLa cell extract proteins (Homo sapiens, UniProt P39019).
T5 construct: endogenous in cells; host or cells: HeLa cell extract

In experiment [6] the target is T6, HeLa cell extract proteins (Homo sapiens, UniProt P55795).
T6 construct: endogenous in cells; host or cells: HeLa cell extract
T6 sequence (P55795 1-449): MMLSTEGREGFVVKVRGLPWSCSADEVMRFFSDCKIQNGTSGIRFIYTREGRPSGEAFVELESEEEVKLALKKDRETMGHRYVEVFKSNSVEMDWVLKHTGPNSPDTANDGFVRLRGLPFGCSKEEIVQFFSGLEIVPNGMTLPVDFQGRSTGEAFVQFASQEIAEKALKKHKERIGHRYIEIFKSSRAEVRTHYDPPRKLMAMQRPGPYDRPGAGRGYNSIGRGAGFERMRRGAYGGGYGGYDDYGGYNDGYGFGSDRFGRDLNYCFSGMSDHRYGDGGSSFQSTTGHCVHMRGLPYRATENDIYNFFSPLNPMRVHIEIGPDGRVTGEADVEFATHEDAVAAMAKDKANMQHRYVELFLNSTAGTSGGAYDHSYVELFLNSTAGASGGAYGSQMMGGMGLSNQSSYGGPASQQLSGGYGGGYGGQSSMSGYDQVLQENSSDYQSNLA

Experiment [7] has as its target T7, HeLa cell extract proteins (Homo sapiens, UniProt P56589).
T7 construct: endogenous in cells; host or cells: HeLa cell extract
T7 sequence (P56589 1-373): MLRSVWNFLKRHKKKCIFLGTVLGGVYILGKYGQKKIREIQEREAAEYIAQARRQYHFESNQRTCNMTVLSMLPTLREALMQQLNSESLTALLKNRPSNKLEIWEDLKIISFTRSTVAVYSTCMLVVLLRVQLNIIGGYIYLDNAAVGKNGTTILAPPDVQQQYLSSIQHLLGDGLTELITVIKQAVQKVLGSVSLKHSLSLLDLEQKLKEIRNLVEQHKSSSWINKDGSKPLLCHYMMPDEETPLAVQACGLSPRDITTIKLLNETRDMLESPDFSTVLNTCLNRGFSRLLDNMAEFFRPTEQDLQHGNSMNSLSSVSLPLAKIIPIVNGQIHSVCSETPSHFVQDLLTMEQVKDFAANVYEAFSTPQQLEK

Experiment [8] addresses T8, HeLa cell extract proteins (Homo sapiens, UniProt Q08380).
T8 construct: endogenous in cells; host or cells: HeLa cell extract
T8 sequence (Q08380 19-585): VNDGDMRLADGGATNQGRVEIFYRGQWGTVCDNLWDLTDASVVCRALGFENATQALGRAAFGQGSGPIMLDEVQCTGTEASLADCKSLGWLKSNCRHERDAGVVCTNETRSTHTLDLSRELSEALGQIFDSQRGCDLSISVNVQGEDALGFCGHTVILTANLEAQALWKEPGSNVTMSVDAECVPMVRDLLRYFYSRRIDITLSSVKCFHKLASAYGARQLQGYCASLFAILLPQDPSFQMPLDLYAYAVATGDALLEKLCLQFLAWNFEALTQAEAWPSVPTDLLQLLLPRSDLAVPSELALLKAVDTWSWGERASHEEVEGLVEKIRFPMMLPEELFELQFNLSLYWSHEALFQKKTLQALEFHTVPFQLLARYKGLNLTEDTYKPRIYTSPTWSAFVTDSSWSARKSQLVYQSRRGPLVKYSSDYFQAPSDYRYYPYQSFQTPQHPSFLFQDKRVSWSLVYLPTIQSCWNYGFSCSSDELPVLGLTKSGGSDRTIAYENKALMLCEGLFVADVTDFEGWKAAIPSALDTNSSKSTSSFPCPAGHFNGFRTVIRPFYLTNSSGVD

The target of experiment [9] is T9, HeLa cell extract proteins (Homo sapiens, UniProt Q13315).
T9 construct: endogenous in cells; host or cells: HeLa cell extract
T9 sequence (Q13315 whole entry): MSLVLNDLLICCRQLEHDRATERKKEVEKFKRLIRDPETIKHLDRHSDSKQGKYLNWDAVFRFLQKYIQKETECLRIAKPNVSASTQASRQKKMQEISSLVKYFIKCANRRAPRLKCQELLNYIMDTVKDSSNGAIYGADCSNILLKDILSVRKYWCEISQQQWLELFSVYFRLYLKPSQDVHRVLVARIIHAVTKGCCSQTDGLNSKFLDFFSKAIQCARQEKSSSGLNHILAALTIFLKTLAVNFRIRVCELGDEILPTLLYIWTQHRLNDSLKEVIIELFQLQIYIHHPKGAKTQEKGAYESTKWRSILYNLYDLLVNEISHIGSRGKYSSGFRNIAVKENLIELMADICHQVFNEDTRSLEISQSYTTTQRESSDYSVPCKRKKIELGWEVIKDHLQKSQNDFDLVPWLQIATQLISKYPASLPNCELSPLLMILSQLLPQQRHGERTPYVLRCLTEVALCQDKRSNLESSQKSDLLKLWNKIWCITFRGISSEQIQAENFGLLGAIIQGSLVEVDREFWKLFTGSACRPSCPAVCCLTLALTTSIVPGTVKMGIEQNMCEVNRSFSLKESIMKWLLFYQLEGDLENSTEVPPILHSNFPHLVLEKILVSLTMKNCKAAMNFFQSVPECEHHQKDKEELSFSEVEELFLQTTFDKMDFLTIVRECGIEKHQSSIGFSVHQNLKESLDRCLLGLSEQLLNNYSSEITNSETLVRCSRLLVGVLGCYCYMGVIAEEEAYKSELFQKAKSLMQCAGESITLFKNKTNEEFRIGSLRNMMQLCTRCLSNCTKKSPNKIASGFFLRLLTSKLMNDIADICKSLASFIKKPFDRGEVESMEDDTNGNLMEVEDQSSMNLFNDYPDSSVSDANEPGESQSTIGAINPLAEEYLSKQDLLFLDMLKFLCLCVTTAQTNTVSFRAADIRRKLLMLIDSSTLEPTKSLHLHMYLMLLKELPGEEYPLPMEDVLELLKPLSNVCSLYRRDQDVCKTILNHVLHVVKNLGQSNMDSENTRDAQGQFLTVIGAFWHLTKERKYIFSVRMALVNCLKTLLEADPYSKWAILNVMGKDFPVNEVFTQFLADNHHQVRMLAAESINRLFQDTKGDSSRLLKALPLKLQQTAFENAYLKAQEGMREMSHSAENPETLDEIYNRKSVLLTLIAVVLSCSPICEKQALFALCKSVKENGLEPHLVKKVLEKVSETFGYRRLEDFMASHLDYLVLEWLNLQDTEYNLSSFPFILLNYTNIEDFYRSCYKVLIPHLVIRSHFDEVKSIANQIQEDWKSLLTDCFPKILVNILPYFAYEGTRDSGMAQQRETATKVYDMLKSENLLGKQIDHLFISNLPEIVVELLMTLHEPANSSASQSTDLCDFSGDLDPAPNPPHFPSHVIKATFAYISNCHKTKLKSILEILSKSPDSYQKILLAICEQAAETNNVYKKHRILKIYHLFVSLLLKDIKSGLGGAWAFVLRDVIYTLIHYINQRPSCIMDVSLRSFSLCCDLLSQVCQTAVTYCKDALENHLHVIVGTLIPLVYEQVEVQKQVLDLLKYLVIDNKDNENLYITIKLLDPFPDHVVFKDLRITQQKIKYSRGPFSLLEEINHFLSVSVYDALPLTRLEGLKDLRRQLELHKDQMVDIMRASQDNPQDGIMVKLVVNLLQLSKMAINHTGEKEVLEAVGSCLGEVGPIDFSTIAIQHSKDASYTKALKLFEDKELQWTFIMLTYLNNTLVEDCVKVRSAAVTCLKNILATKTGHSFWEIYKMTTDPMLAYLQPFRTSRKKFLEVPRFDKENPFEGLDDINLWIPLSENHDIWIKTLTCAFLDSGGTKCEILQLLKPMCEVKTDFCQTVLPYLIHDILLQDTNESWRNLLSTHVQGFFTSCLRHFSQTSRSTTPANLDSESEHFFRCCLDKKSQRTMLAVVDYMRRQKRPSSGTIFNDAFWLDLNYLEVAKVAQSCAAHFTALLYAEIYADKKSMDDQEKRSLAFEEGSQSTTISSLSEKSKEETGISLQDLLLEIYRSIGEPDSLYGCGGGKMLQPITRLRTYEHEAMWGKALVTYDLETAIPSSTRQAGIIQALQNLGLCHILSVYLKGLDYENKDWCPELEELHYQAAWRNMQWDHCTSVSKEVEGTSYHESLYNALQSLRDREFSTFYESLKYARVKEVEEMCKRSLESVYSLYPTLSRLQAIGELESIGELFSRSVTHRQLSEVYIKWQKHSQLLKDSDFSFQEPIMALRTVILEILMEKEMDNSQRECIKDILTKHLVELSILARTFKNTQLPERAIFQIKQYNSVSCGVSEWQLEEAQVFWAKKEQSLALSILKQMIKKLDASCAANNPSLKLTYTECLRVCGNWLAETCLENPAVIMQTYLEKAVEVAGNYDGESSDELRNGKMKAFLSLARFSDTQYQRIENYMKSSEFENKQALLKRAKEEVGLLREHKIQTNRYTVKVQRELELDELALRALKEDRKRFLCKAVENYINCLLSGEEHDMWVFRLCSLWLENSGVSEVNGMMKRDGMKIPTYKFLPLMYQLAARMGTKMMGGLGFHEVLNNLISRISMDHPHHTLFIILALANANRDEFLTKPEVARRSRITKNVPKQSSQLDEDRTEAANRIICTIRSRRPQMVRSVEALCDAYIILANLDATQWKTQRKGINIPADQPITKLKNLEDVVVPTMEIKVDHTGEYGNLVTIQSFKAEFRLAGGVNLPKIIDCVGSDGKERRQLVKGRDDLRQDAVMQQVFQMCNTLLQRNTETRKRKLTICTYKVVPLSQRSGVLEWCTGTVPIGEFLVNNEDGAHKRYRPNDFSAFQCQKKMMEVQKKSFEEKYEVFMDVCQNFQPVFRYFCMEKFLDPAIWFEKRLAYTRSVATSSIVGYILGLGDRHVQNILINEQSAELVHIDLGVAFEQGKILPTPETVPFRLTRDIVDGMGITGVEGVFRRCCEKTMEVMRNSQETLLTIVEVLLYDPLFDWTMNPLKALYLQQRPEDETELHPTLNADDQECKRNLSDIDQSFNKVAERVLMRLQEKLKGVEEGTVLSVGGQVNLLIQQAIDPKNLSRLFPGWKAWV

The target in experiment [10] is T10, HeLa cell extract proteins (Homo sapiens, UniProt Q13347).
T10 construct: endogenous in cells; host or cells: HeLa cell extract
T10 sequence (Q13347 whole entry): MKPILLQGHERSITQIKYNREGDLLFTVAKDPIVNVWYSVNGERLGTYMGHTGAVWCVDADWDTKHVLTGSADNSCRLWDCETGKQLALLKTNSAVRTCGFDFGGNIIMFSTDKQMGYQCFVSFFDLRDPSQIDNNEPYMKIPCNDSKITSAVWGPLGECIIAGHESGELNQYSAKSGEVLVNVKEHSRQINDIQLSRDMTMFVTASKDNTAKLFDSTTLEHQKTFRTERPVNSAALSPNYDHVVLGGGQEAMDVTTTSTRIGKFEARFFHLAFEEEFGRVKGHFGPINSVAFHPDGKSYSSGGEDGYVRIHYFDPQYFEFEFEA

For experiment [11], the target named is T11, HeLa cell extract proteins (Homo sapiens, UniProt Q6P1J9).
T11 construct: endogenous in cells; host or cells: HeLa cell extract

Experiment [12] deals with T12, HeLa cell extract proteins (Homo sapiens, UniProt Q7Z3U7).
T12 construct: endogenous in cells; host or cells: HeLa cell extract

Experiment [13] has as its target T13, HeLa cell extract proteins (Homo sapiens, UniProt Q99439).
T13 construct: endogenous in cells; host or cells: HeLa cell extract
T13 sequence (Q99439 1-309): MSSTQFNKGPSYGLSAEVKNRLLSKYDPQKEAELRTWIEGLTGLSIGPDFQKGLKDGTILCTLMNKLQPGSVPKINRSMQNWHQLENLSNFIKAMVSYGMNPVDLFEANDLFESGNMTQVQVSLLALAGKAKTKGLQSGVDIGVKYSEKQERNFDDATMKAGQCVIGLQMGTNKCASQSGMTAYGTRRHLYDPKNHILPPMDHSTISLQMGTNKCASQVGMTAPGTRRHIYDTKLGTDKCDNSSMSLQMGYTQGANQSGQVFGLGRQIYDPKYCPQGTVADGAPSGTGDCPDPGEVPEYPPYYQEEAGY

[14] abbreviates: HeLa, protein RPS19 (40S RIBOSOMAL PROTEIN S19).
The mark [15] stands for this setting: HeLa, protein LGALS3BP (GALECTIN-3-BINDING PROTEIN PRECURSOR).

T1 sequence (O14980 whole entry): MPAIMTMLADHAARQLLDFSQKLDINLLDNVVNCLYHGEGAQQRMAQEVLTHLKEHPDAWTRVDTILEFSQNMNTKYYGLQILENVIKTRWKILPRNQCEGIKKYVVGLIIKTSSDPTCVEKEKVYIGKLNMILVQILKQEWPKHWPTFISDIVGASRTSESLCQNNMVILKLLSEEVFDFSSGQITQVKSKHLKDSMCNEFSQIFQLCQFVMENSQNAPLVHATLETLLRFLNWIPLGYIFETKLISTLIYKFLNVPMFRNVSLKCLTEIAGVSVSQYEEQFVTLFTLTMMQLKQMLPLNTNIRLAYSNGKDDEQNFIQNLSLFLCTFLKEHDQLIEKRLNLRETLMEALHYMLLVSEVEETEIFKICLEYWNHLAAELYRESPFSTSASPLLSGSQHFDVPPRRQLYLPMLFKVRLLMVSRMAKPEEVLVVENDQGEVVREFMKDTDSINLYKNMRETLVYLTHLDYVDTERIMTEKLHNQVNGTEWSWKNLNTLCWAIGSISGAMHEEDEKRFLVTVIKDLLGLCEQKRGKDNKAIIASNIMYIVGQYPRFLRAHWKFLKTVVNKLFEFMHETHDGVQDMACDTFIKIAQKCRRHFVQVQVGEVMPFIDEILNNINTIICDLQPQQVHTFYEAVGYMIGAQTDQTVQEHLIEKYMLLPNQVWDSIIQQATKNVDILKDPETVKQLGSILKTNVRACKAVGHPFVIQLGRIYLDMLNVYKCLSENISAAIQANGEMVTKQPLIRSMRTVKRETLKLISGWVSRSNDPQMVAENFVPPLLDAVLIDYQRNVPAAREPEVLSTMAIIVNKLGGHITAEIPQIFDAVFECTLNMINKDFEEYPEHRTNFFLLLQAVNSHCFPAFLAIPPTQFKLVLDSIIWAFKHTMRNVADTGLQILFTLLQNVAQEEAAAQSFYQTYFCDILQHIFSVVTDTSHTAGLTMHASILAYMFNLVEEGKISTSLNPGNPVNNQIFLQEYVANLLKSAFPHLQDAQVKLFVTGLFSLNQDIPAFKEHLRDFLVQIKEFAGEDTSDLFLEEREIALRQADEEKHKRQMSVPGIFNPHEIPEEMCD

Regarding `Nc1nc2c(c(=O)[nH]1)N(C=O)C(CNc1ccc(C(=O)N[C@@H](CCC(=O)O)C(=O)O)cc1)CN2` (stereo partly drawn) [LEU, leucovorin], the “fold changes relative to vehicle control” value in [1] (HeLa, captured protein XPO1) amounted to 0.92; in [2] (protein COX2, HeLa), 1.05; in [3] (protein POLR2B, HeLa), 0.8; in experiment [4] (HeLa, captured protein ATP5C1), 0.99; in [5] (setting [14]), 1.12; in [6] (HeLa, captured protein HNRNPH2), 0.9. The “fold changes relative to vehicle control” value in experiment [7] (HeLa, captured protein PEX3) came out at 1.02; in experiment [8] (setting [15]) it was 1.08; in experiment [9] (HeLa, protein ATM), 0.92; in experiment [10] (HeLa, captured protein EIF3I), 1.06; in [11] (protein CDC73, HeLa), 0.81; in experiment [12] (HeLa, captured protein MON2), 1.04. Further, the “fold changes relative to vehicle control” value in [13] (HeLa, captured protein CNN2) is 0.97.
On to `Nc1nc2[nH]cc(CCc3ccc(C(=O)N[C@@H](CCC(=O)O)C(=O)O)cc3)c2c(=O)[nH]1` [PTX, pemetrexed], for which the “fold changes relative to vehicle control” value is listed as 0.86 in [1]; 1.24 in experiment [2]; 0.89 in experiment [3]; 1.01 in [4]; 1.11 in experiment [5]; 0.82 in experiment [6]. Besides, the “fold changes relative to vehicle control” value is reported as 0.95 in [7]; 1.13 in [8]; 1.04 in experiment [9]; 1.06 in experiment [10]; 0.76 in experiment [11]; 1.05 in experiment [12]. The “fold changes relative to vehicle control” value in [13] stood at 0.96.
Turning to `CCCCCCOc1ccc(Cc2cnc(N)nc2N)cc1` [compound 1], the “fold changes relative to vehicle control” value in experiment [1] (HeLa, protein XPO1) was determined as 0.99; in [2] (captured protein COX2, HeLa), 0.99; in experiment [3] (HeLa, protein POLR2B), 0.94; in [4] (HeLa, protein ATP5C1) it was 1.05; in experiment [5] (protein RPS19, HeLa), 0.98; in experiment [6] (protein HNRNPH2, HeLa), 0.93. Besides, the “fold changes relative to vehicle control” value in experiment [7] (HeLa, protein PEX3) is recorded as 0.94; in experiment [8] (protein LGALS3BP, HeLa), 0.97; in experiment [9] (HeLa, protein ATM), 1.03; in experiment [10] (protein EIF3I, HeLa) it was 0.96; in experiment [11] (protein CDC73, HeLa), 1.18; in [12] (HeLa, protein MON2), 1.11. The “fold changes relative to vehicle control” value in [13] (HeLa, protein CNN2) turned out to be 0.81.
For the compound `CCCCCCOc1cccc(Cc2cnc(N)nc2N)c1` [compound 2], the “fold changes relative to vehicle control” value in experiment [1] (HeLa, protein XPO1) came to 1.09; in [2] (captured protein COX2, HeLa), 0.95; in experiment [3] (HeLa, protein POLR2B) it was 1.42; in experiment [4] (HeLa, protein ATP5C1), 0.9; in [5] (protein RPS19, HeLa), 1.19; in experiment [6] (protein HNRNPH2, HeLa), 0.96. The “fold changes relative to vehicle control” value was 0.93 in experiment [7] (HeLa, protein PEX3); 0.95 in [8] (protein LGALS3BP, HeLa); 1.01 in experiment [9] (HeLa, protein ATM); 0.91 in experiment [10] (protein EIF3I, HeLa); 1.08 in [11] (protein CDC73, HeLa); 1.08 in experiment [12] (HeLa, protein MON2). Besides, the “fold changes relative to vehicle control” value in experiment [13] (HeLa, protein CNN2) was 0.95.
For `Nc1nc2cccc(-c3ccccc3)c2n1Cc1ccc(Cl)c(Cl)c1` [compound 3], the “fold changes relative to vehicle control” value in experiment [1] (HeLa, protein XPO1) is given as 1.03; in experiment [2] (captured protein COX2, HeLa) it was 1.14; in experiment [3] (HeLa, protein POLR2B), 0.98; in experiment [4] (HeLa, protein ATP5C1), 0.89; in experiment [5] (protein RPS19, HeLa), 1.01; in [6] (protein HNRNPH2, HeLa) it was 1.05. Also, the “fold changes relative to vehicle control” value in experiment [7] (HeLa, protein PEX3) was determined as 0.92; in experiment [8] (protein LGALS3BP, HeLa) it was 1.07; in experiment [9] (HeLa, protein ATM), 1.14; in [10] (protein EIF3I, HeLa), 1.02; in experiment [11] (protein CDC73, HeLa), 0.88; in [12] (HeLa, protein MON2), 1.18. The “fold changes relative to vehicle control” value in experiment [13] (HeLa, protein CNN2) came out at 1.07.
For `NCCOCCOCC(=O)Nc1nc2ncc(CNc3ccc(C(=O)NC(CCC(=O)O)C(=O)O)cc3)nc2c(=O)[nH]1` (stereo not drawn) [compound 6], the “fold changes relative to vehicle control” value in experiment [1] (HeLa, captured protein XPO1) stood at 0.93; in [2] (protein COX2, HeLa) it was 1.33; in experiment [3] (protein POLR2B, HeLa) it was 1.07; in experiment [4] (HeLa, captured protein ATP5C1) it was 0.97; in [5] (setting [14]), 1.1; in experiment [6] (HeLa, captured protein HNRNPH2), 0.83. Also, the “fold changes relative to vehicle control” value in experiment [7] (HeLa, captured protein PEX3) is 1; in experiment [8] (setting [15]) it was 1.02; in experiment [9] (HeLa, protein ATM) it was 1.1; in experiment [10] (HeLa, captured protein EIF3I), 0.98; in experiment [11] (protein CDC73, HeLa), 0.88; in [12] (HeLa, captured protein MON2), 1.17. Further, in [13] (HeLa, captured protein CNN2), the “fold changes relative to vehicle control” value amounted to 0.93.
